# Reference: paper PMC8020795 (Proceedings of the National Academy of Sciences of the …, 2021)
# Values joined by “and” are separate entries in the source; they are usually repeats but may differ in a detail not shown here. Identical values can stand only once. “Also recorded” adds a separate entry of the source.
# Columns and labels:
# [1] = target: T1, CXCR4 (Homo sapiens, UniProt P61073); test: PathHunter β-arrestin assay, chemokine receptor selectivity; type: cell-based
# Text: (§1) Table: List of genes examined by real-time PCR and the primer sequences used.
# (§2) Genes Forward primers Reverse primers […]
# (§3) Vim 5’-[…]-3’ 5’-[…]-3’ […]
# (§4) Zeb2 5’-[…]-3’ 5’-[…]-3’
# (§5) Twist1 5’-[…]-3’ 5’-[…]-3’
# (§6) Cdh1 5’-[…]-3’ 5’-[…]-3’
# (§7) Mta3 5’-[…]-3’ 5’-[…]-3’ […]
# (§8) Off-target standard assays
# (§9) Methods employed in this study have been adapted from the scientific literature to […]
# (§10) maximize reliability and reproducibility. Reference standards were run as an integral part of […]
# (§11) each assay to ensure the validity of the results obtained. Radioligand binding Assays were […]
# (§12) performed under conditions described in the accompanying "Methods" section of this report […]
# (§13) by Eurofins Panlabs, Inc (Taipei, Taiwan, ROC).
# (§14) BPRCX807 were tested in the hERG (hERG-CHO, automated patch-clamp) assay and determined at Eurofins Panlabs (Missouri, USA). The experiment was accepted in accordance with Eurofins validation Standard Operating Procedure.
# (§15) Selectivity Screening of various chemokine receptors
# (§16) The results were performed by Eurofins DiscoverX (Fremont, California, USA). The […]
# (§17) PathHunter® β -Arrestin assay was performed in a homogenous, non-imaging assay format […]
# (§18) using a technology developed by DiscoverX called Enzyme Fragment Complementation […]
# (§19) called Enzyme Acceptor (EA). PK and EA are then expressed as fusion proteins in the cell, […]
# (§20) restoring β-Gal activity which is measured using chemiluminescent PathHunter® Detection […]
# [2] = test system: other chemokine receptors (10 CCRs, 7 CXCRs, and 1 CX3CR subtypes); test: as above; type: cell-based; settings: 10 µM
# Text: as §1, §2, §3, §4, §5, §6, §7, §8, §9, §10, §11, §12, §13, §14, §15, §16, §17, §18, §19, §20
# [3] = test system: orthotopic HCA-1 tumors; test: Orthotopic HCA-1 HCC model; type: in vivo, C3H mice; settings: for Overall survival: n = 8
# Protocol: In vivo hepatocellular carcinoma treatment studies […]
# mouse PD-1 (200 µg/mouse; BioXcell, BE0146). The therapeutic efficacy and the changes in immune cells were analyzed after two weeks of treatment. The tumor volume was calculated with the following formula: volume = width × length × height/2. […]
# Hematoxylin and Eosin staining
# Lung tissue was cut into small pieces and fixed in 4% PFA (in PBS) overnight before being embedded in paraffin wax. The sections were then stained with hematoxylin and eosin (H&E) and observed with an inverted microscope (IX83, Olympus, Japan).
# HCA-1 tumor-bearing mice were anesthetized, perfused via intracardiac injection with PBS and then sacrificed. Tumor tissues were collected and harvested in enzyme-containing DMEM cell culture medium (1.5 mg/mL of collagenase type 1A and hyaluronidase; Sigma).
# The tissues were cut and ground into smaller pieces and then digested for 1 h at 37 °C to form suspensions of single tumor cells. The suspensions were filtered through a 70-µm cell strainer (Corning, Manassas, VA), and the cells were then incubated with rat anti-mouse CD16/CD32 mAbs to block Fc receptors. After washing 3 times and resuspending in cold flow buffer (1% BSA, 0.1% NaN3 in PBS), the single-cell suspensions were incubated with monoclonal anti-mouse F4/80-PE (eBiosciences, San Diego, CA), 7-AAD, CD3e-APC, CD8a-PE-Cy7, CD45-FITC, CD4-PE (BD Biosciences, East Rutherford, NJ), CD86-APC-
# [4] = test system: HCA-1 cells; test: Western blot of phospho-ERK and phospho-AKT after CXCL12 stimulation; type: cell-based, murine; settings: 20 µM, CXCL12 stimulation
# Protocol: Western blotting was conducted by following standard procedures. HCA-1 or JHH-7 cells (10^5 cells per well) were seeded in 12-well plates (Costar, IL), incubated for 12 h and […]
# containing (100 ng/mL) serum-free medium. After 24 h, the cells were lysed in RIPA buffer on ice for 30 min, and samples were collected and loaded with 4× Laemmli Sample buffer (Bio-Rad, Hercules, CA). The samples were separated on a 10% SDS-PAGE gels and transferred to PVDF membranes. After blocking with skim milk for 1 h, the membranes were incubated at 4°C overnight with primary antibodies against p -AKT, AKT, p-ERK, ERK (Cell Signaling, Danvers, MA) or β-actin (Sigma-Aldrich, St. Louis, MO) before incubation with HRP-conjugated secondary antibodies (Antibodies Inc., Davis, CA) for 1 h. […]
# Total RNA was extracted from HCA-1 cells using the RNeasy Mini Kit (Qiagen, CA, USA). cDNAs were synthesized using the High-Capicity cDNA Reverse Transcription Kit […]
# Biosystems, CA, USA) on a QPCR System. The comparative threshold cycle method was used to calculate fold change in gene expression, which was normalized to β-actin as a […]
# [5] = in vivo; settings: ICR, mouse, sc
# [6] = target: T1, CXCR4; test: CXCL12-induced chemotaxis inhibition assay in CCRF-CEM cells; type: cell-based; design: host or cells: CCRF-CEM; settings: mean ± SD
# Protocol: Figure S1. Binding affinity and chemotaxis inhibition assay of BPRCX807. (a) Binding affinity (IC50) of BPRCX807 was determined by 50% inhibition of radioligand [125I]CXCL12 binding to hCXCR4-transfected HEK293T membrane; (b) CXCL12-induced chemotaxis inhibition assay was performed to measure the inhibitory activity of BPRCX807 using CCRF-CEM cell line. Values represent the mean ± SD of at least three independent […]
# Figure S2. CXCR4+CD34+ stem cell mobilization. C57BL/6 male mice were […]
# h after dosing, the peripheral blood was harvested for analyzing the number of CXCR4+CD34+ stem cells. The data are the mean values ± SEM (n = 3/group). Statistical
# [7] = alone or combined with sorafenib
# T1 sequence (P61073 whole entry): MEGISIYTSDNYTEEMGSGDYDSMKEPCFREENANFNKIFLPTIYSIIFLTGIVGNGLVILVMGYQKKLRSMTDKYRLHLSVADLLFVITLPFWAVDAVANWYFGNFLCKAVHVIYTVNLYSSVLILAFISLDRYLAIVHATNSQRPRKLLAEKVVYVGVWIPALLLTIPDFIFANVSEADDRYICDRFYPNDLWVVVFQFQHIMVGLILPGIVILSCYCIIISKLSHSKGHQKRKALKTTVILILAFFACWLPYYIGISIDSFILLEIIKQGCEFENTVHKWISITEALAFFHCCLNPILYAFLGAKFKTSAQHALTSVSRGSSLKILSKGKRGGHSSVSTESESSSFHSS
compound,measurement,setting,value
Cc1cc(NC2CCN(C(=O)CCNCC(=O)O)CC2)nc(NCc2nc(CCCNCCCNC3CCCCC3)co2)n1 [BPRCX807],inhibition at 10 µM,[1],100%
same,Inhibition of other chemokine receptors (β-arrestin assay),[2],< 10%
same,Lung metastasis (number of lung nodules),"[3]; BPRCX807 combined with sorafenib, day 24",significantly suppress lung metastasis
same,Proportion of M1-like CD86+ TAMs in tumors,[3]; [7],increasing the proportion
same,Proportion of M2-like CD206+ TAMs in tumors,[3]; [7],decreasing
same,Tumor size reduction vs. control,"[3]; combination of BPRCX807 (15 mg/kg/d SC) with anti–PD-1 (200 μg/mouse IP), day 24",more than 95%
same,Lung metastasis,[3]; combination with anti–PD-1,significantly prevented
same,Overall survival,[3]; combination with anti–PD-1 vs either alone,significantly prolonged
same,Tumor volume reduction,"[3]; combination with sorafenib (40 mg/kg/d, oral), BPRCX807 15 mg/kg/d SC minipump",roughly 85%
same,Overall survival,[3]; combination with sorafenib vs BPRCX807 (P = 0.0123) or sorafenib (P = 0.0053) alone,significantly extended
same,F4/80+ TAMs infiltration into tumor (flow cytometry),[3]; treatment alone,significantly decreased
same,CD8+ T cell infiltration into tumors,"[3]; treatment alone, compared to no treatment",moderately increased
same,"Intratumoral mean vessel density (MVD, CD31+ staining)","[3]; treatment alone, day 24",significantly decrease intratumoral MVD
same,Lung metastasis (number of lung nodules),"[3]; treatment alone, day 24",reduced; also recorded: significantly suppress lung metastasis
same,Tumor growth,"[3]; treatment alone, immunotherapy study, day 24",moderately inhibiting tumor growth
same,CXCR4/CXCL12-triggered ERK and Akt activation,[4],suppress CXCR4/CXCL12-triggered ERK and Akt activation more significantly than its counterparts
same,MTD,[5],75 mg/kg
same,EC50,[6],0.048 µM and 0.0481 µM
